The target in one data set is nicotinic receptors Rα7 (Rattus norvegicus, UniProt Q05941). As to the kind of experiment: biochemical. Type of data set: binding.
Setting [1] is: rat frontal cortex membranes, [125I]α-bungarotoxin 2 nM, 22° C., 3 hours, Ki calculated from IC50 (Cheng and Prussof), read-out: Activity on Rα7.

Read-outs that look alike come from different tables or passages of the source.

Sequence of nicotinic receptors Rα7 (Q05941 23-502): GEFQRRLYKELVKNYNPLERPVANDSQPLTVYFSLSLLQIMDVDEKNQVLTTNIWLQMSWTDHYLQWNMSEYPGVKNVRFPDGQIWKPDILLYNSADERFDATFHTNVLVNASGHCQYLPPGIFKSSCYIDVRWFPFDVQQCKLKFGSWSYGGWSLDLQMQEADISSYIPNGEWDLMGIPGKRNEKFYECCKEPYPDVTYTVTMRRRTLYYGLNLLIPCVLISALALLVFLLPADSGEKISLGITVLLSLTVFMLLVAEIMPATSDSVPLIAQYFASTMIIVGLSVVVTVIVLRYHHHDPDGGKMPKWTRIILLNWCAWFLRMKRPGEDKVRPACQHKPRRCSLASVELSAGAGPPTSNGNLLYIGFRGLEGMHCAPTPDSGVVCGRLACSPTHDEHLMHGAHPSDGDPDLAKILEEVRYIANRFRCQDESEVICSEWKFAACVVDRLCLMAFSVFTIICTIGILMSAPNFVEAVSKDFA

As to `COc1cccc(-c2cn([C@H]3CN4CCC3CC4)nn2)c1` [Compound 47, (R)-3-(4-(3-Methoxyphenyl)-1H-1,2,3-triazol-1-yl)quinuclidine], on nicotinic receptors Rα7 (setting [1]), the Ki was 2.3 ± 1 nM.

As to `OCc1ccc(-c2cn([C@H]3CN4CCC3CC4)nn2)cc1` [Compound 38, (R)-(4-(1-(Quinuclidin-3-yl)-1H-1,2,3-triazol-4-yl)phenyl)methanol], the melting point (usually the temperature of the solid-liquid transition) is 200 °C. `FCc1ccc(-c2ccc(-c3cn([C@H]4CN5CCC4CC5)nn3)s2)cc1` [Compound 112, (R)-3-[4-[5-[4-(fluoromethyl)phenyl]-2-thienyl]-1H-1,2,3-triazol-1-yl]quinuclidine] came in with a melting point of 199 °C. Moreover, the Ki at nicotinic receptors Rα7 (setting [1]) was 5 nM. With `c1ccc(-c2cn(C3CCCN4CCCCC34)nn2)cc1` (stereo not shown), the melting point was 150 °C. The compound `Cl.ClCc1ccc(-c2ccc(-c3cn([C@H]4CN5CCC4CC5)nn3)s2)cc1` had a melting point of 255 °C. On to `Fc1ccc(-c2cn([C@@H]3CN4CCC3CC4)nn2)cc1` [Compound 57, (S)-3-(4-(4-Fluorophenyl)-1H-1,2,3-triazol-1-yl)quinuclidine], for which the melting point came to 139 °C. Besides, the Ki on nicotinic receptors Rα7 (setting [1]) is 114 ± 38 nM. As for `O=Cc1ccc(-c2ccc(-c3cn([C@H]4CN5CCC4CC5)nn3)cc2)s1` [Compound 97, (R)-5-[4-[1-[quinuclidin-3-yl]-1H-1,2,3-triazol-4-yl]phenyl]thiophene-2-carbaldehyde], the melting point turned out to be 228 °C. Also, the Ki on nicotinic receptors Rα7 fell in the range of 90 to 120 nM. The compound `c1csc(-c2ccc(-c3cn([C@H]4CN5CCC4CC5)nn3)s2)c1` [Compound 61, (R)-3-(4-(2,7-Bithiophen-5-yl)-1H-1,2,3-triazol-1-yl)quinuclidine] registered a melting point of 182 °C. The Ki on nicotinic receptors Rα7 (setting [1]) is 20 ± 2 nM. Compound `O=Cc1ccc(-c2cccc(-c3cn([C@H]4CN5CCC4CC5)nn3)c2)s1` [Compound 101, (R)-5-[3-[1-[quinuclidin-3-yl]-1H-1,2,3-triazol-4-yl]phenyl]thiophene-2-carbaldehyde] gave a melting point of 150 °C. The same compound gave a Ki on nicotinic receptors Rα7 of 7 nM. Compound `Fc1ccc(-c2ccc(-c3cn([C@H]4CN5CCC4CC5)nn3)s2)cn1` [Compound 87, (R)-3-[4-[5-(6-fluoro-3-pyridyl)-2-thienyl]-1H,1,2,3-triazol-1-yl]quinuclidine] returned a melting point of 163 °C.

Regarding `c1ccc(-c2cn([C@H]3CN4CCC3CC4)nn2)cc1` [Compound 37, (R)-3-(4-Phenyl-1H-1,2,3-triazol-1-yl)quinuclidine], the melting point amounted to 132 °C. On nicotinic receptors Rα7 (setting [1]), the Ki is 8 ± 4 nM. For `OCc1ccc(-c2cccc(-c3cn([C@H]4CN5CCC4CC5)nn3)c2)s1` [Compound 115, (R)-[5-[3-[1-[quinuclidin-3-yl]-1H-1,2,3-triazol-4-yl]phenyl]-2-thienyl]-methanol], the melting point is 176 °C. Besides, the Ki at nicotinic receptors Rα7 is 0.5 nM. The like results for `OCc1ccc(-c2cccc(-c3cn([C@H]4CN5CCC4CC5)nn3)c2)cc1` [Compound 98, (R)-[4-[3-[1-[quinuclidin-3-yl]-1H-1,2,3-triazol-4-yl]phenyl]phenyl]methanol] were, in that order, 214 °C and 105 nM. `Fc1ccc(-c2cn(C3CCCN4CCCCC34)nn2)cc1` (stereo not shown) yielded a melting point of 142 °C. Consider `c1csc(-c2cn([C@H]3CN4CCC3CC4)nn2)c1` [Compound 53, (R)-3-(4-(Thiophen-2-yl)-1H-1,2,3-triazol-1-yl)quinuclidine], for which the melting point came to 137 °C. Besides, the Ki at nicotinic receptors Rα7 (setting [1]) is 9.5 ± 3 nM. As to `Nc1c(-c2ccccc2)nnn1[C@H]1CN2CCC1CC2` [Compound 60, (R)-4-Phenyl-1-(quinuclidin-3-yl)-1H-1,2,3-triazol-5-amine], the melting point worked out at 120 °C. This compound had a Ki at nicotinic receptors Rα7 of 11 ± 4 nM. The compound `COc1ccc(-n2cc(C3(O)CN4CCC3CC4)nn2)cc1` (stereo not shown) yielded a melting point of 174 °C. On to `OC1(c2cn(-c3ccc(Br)cc3)nn2)CN2CCC1CC2` (stereo not shown), for which the melting point stood at 214 °C. `O=[N+]([O-])c1ccc(-c2ccc(-c3cn([C@H]4CN5CCC4CC5)nn3)s2)cn1`: the melting point turned out to be 160 °C. On the same count and under the same terms, the value for `FCc1ccc(-c2cn([C@H]3CN4CCC3CC4)nn2)cc1` [Compound 58, (R)-3-(4-(4-(Fluoromethyl)phenyl)-1H-1,2,3-triazol-1-yl)quinuclidine] was 138 °C; that for `Brc1coc(-c2cn([C@H]3CN4CCC3CC4)nn2)c1` was 129 °C; that for `OCc1cccc(-c2ccc(-c3cn([C@H]4CN5CCC4CC5)nn3)s2)c1` [Compound 85, (R)-[3-[5-[1-[quinuclidin-3-yl]-1H2,3-triazol-4-yl]-2-thienyl]phenyl]methanol] was 181 °C.

In turn, `OCc1cccc(-c2ccc(-c3cn([C@H]4CN5CCC4CC5)nn3)cc2)c1` [Compound 95, (R)-[3-[4-[1-[quinuclidin-3-yl]-1H-1,2,3-triazol-4-yl]phenyl]phenyl]methanol] displayed a melting point of 207 °C. For the same compound, the Ki on nicotinic receptors Rα7 (setting [1]) was 100 nM.

As to `Fc1ccccc1-c1cn([C@H]2CN3CCC2CC3)nn1` [Compound 44, (R)-3-(4-(2-Fluorophenyl)-1H-1,2,3-triazol-1-yl)quinuclidine], the melting point stood at 94 °C. On nicotinic receptors Rα7 (setting [1]), the Ki was 13 ± 3 nM. `Clc1ccc(-c2cccc(-c3cn([C@H]4CN5CCC4CC5)nn3)c2)cn1`: the melting point was 80 °C (dec.). The same measure, in the same setting: the value for `Brc1csc(-c2cn([C@H]3CN4CCC3CC4)nn2)c1` was 106 °C; that for `Fc1ccc(-c2csc(-c3cn([C@H]4CN5CCC4CC5)nn3)c2)cn1` [Compound 88, (R)-3-[4-[4-(6-fluoro-3-pyridyl)-2-thienyl]-1H-1,2,3-triazol-1-yl]quinuclidine] was 136 °C. Compound `OCc1ccc(-c2ccc(-c3cn([C@H]4CN5CCC4CC5)nn3)cc2)s1` [Compound 114, (R)-[5-[4-[1-[quinuclidin-3-yl]-1H-1,2,3-triazol-4-yl]phenyl]-2-thienyl]methanol] came in with a melting point of 234 °C. At nicotinic receptors Rα7, this compound came in with a Ki of 160 nM.

As for `COC(=O)c1ccc(-c2ccc(-c3cn([C@H]4CN5CCC4CC5)nn3)s2)cc1Cl`, the melting point was found to be 200 °C. Turning to `COc1ccc2cc(-c3cn([C@H]4CN5CCC4CC5)nn3)ccc2c1` [Compound 49, (R)-3-(4-(6-Methoxynaphthalen-2-yl)-1H-1,2,3-triazol-1-yl)quinuclidine], the melting point came to 186 °C. The Ki at nicotinic receptors Rα7 (setting [1]) was 196 ± 21 nM. Consider `CN1CCN(Cc2ccc(-c3ccc(-c4cn([C@H]5CN6CCC5CC6)nn4)s3)cc2)CC1` [Compound 104, (R)-3-[4-[5-[4-[(4-methylpiperazin-1-yl)methyl]phenyl]-2-thienyl]-1H-1,2,3-triazol-1-yl]quinuclidine], for which the melting point is 214 °C. Further, the Ki at nicotinic receptors Rα7 (setting [1]) was 0.3 nM. As to `Fc1ccc(-c2coc(-c3cn([C@H]4CN5CCC4CC5)nn3)c2)cn1` [Compound 91, (R)-3-[4-[4-(6-fluoro-3-pyridyl)-2-furyl]-1H-1,2,3-triazol-1-yl]quinuclidine], the melting point was determined as 210 °C. Moreover, the Ki at nicotinic receptors Rα7 was determined as 117 nM. On to `Clc1ccc(-c2cn([C@H]3CN4CCC3CC4)nn2)cc1Cl` [Compound 40, (R)-3-(4-(3,4-Dichlorophenyl)-1H-1,2,3-triazol-1-yl)quinuclidine], for which the melting point is 108 °C. Besides, at nicotinic receptors Rα7 (setting [1]), the Ki was 19 ± 6 nM. `FCc1cccc(-c2ccc(-c3cn([C@H]4CN5CCC4CC5)nn3)s2)c1` had a melting point of 144 °C. The compound `Brc1ccc(-c2cn([C@H]3CN4CCC3CC4)nn2)o1` registered a melting point of 144 °C. The compound `c1cc2cc(-c3cn([C@H]4CN5CCC4CC5)nn3)ccc2s1` [Compound 55, (R)-3-(4 Benzo[b](thiophen-5-yl)-1H-1,2,3-triazol-1-yl) quinuclidine] gave a melting point of 178 °C. Further, the Ki on nicotinic receptors Rα7 (setting [1]) is 19 ± 1 nM. `COc1ccc(-c2cn([C@H]3CN4CCC3CC4)nn2)cn1` [Compound 52, (R)-3-(4-(6-Methoxypyridin-3-yl)-1H-1,2,3-triazol-1-yl)quinuclidine] had a melting point of 155 °C. Also, the Ki at nicotinic receptors Rα7 (setting [1]) was 105 ± 29 nM. Take `c1csc(-c2ccc(-c3cn([C@H]4CN5CCC4CC5)nn3)cc2)c1` [Compound 96, (R)-3-[4-[4-(2-thienyl)phenyl]-1H-1,2,3-triazol-1-yl]quinuclidine]: the melting point amounted to 214 °C. This compound also yielded a Ki on nicotinic receptors Rα7 of 135 nM.

`Fc1ccc(-c2ccc(-c3cn([C@H]4CN5CCC4CC5)nn3)cc2)cn1` had a melting point of 181 °C. In the case of `Fc1ccc(-c2cn([C@H]3CN4CCC3CC4)nn2)cc1` [Compound 42, (R)-3-(4-(4-Fluorophenyl)-1H-1,2,3-triazol-1-yl)quinuclidine], the melting point turned out to be 180 °C. Regarding `c1cc(-c2cn([C@H]3CN4CCC3CC4)nn2)ccn1` [Compound 50, (R)-3-(4-(Pyridin-4-yl)-1H-1,2,3-triazole-1-yl)quinuclidine], the melting point was 150 °C.

The compound `O=[N+]([O-])c1ccc(-c2cccc(-c3cn([C@H]4CN5CCC4CC5)nn3)c2)cn1` registered a melting point of 180 °C. For `CN1CCN(Cc2cccc(-c3ccc(-c4cn([C@H]5CN6CCC5CC6)nn4)s3)c2)CC1`, the melting point is 155 °C. `OCc1ccc(-c2csc(-c3cn([C@H]4CN5CCC4CC5)nn3)c2)cc1` [Compound 86, (R)-[4-[5-[1-[quinuclidin-3-yl]-1H-1,2,3-triazol-4-yl]-3-thienyl]phenyl]methanol] showed a melting point of 196 °C. Same read-out and setting: the value for `Cl.ClCc1ccc(-c2cn([C@H]3CN4CCC3CC4)nn2)cc1` was 240 °C. On the same count and under the same terms, the value for `COc1ccccc1-c1cn([C@H]2CN3CCC2CC3)nn1` [Compound 48, (R)-3-(4-(2-Methoxyphenyl)-1H-1,2,3-triazol-1-yl)quinuclidine] was 120 °C; that for `c1ccc(-c2ccc(-c3cn([C@H]4CN5CCC4CC5)nn3)s2)cc1` was 184 °C.

These data come from US10059704B2, “1,4-disubstituted 1,2,3-triazoles, methods for preparing same, and diagnostic and therapeutic uses thereof” (CENTRE NATIONAL DE LA RECHERCHE SCIENTIFIQUE (C.N.R.S.), priority 2011, dated 2018).
